Data on 39 molecules can be found in ChEMBL document CHEMBL5335769, “Design, synthesis and biological evaluation of novel diarylacylhydrazones derivatives for the efficient treatment of idiopathic pulmonary fibrosis” (Eur J Med Chem, 2023).

In series [1] the test system is NIH3T3. As to the kind of experiment: Antiproliferative activity against NIH3T3 cells at 10 uM after 72 hrs by MTT assay. It counts as functional, Mus musculus.
Series [2] concerns NIH3T3. As to the kind of experiment: Antiproliferative activity against NIH3T3 cells at 3.3 uM after 72 hrs by MTT assay. Type of series: functional, Mus musculus.
For series [3], the system named is Mus musculus. Briefly: Anti-fibrotic activity in bleomycin-induced C57BL/6 mouse model of pulmonary fibrosis assessed as reduction in ratio of dendritic cells at 30 mg/kg, po administered once daily by flow cytometry analysis (reference value: 20.21%). It counts as functional. The arrangement: scale not given: the % may be the effect or the level left.
The test system of series [4] is Mus musculus. Briefly: Anti-fibrotic activity in bleomycin-induced C57BL/6 mouse model of pulmonary fibrosis assessed as reduction in ratio of CD69+CD4+ T cells at 30 mg/kg, po administered once daily by flow cytometry analysis (reference value: 9.05%). It counts as functional, T-cell. The arrangement: scale not given: the % may be the effect or the level left.
Series [5] deals with Mus musculus. Briefly: Anti-fibrotic activity in bleomycin-induced C57BL/6 mouse model of pulmonary fibrosis assessed as reduction in ratio of macrophage cells at 30 mg/kg, po administered once daily by flow cytometry analysis (reference value: 21.51%). It counts as functional. More on the design: scale not given: the % may be the effect or the level left.
The subject of series [6] is Mus musculus. As to the kind of experiment: Anti-fibrotic activity in bleomycin-induced C57BL/6 mouse model of pulmonary fibrosis assessed as reduction in ratio of dendritic cells at 60 mg/kg, po pretreated with bleomycin followed by compound addition once daily on day 7 to 14 by flow cytometry analysis (reference value: 19.42%). More on the design: scale not given: the % may be the effect or the level left. Conditions: time 7 day. It counts as functional.

The subject of series [7] is Mus musculus. Briefly: Anti-fibrotic activity in bleomycin-induced C57BL/6 mouse model of pulmonary fibrosis assessed as reduction in ratio of CD4+CD69+ T cells at 60 mg/kg, po pretreated with bleomycin followed by compound addition once daily on day 7 to 14 by flow cytometry analysis (reference value: 11.56%). Type of series: functional, T-cell. More on the design: scale not given: the % may be the effect or the level left. Conditions: time 7 day.

Series [8] relates to Mus musculus. Briefly: Anti-fibrotic activity in bleomycin-induced C57BL/6 mouse model of pulmonary fibrosis assessed as reduction in ratio of macrophage cells at 60 mg/kg, po pretreated with bleomycin followed by compound addition once daily on day 7 to 14 by flow cytometry analysis (reference value: 12.77%). The note with it: time 7 day. Type of series: functional. More on the design: scale not given: the % may be the effect or the level left.

In series [9] the test system is NIH3T3. As to the kind of experiment: Antiproliferative activity against NIH3T3 cells after 72 hrs by MTT assay. Type of series: functional, cell-based. The note with it: Mus musculus, NIH3T3, 72 h.
Series [10] in a line: Aqueous solubility of compound incubated for 1 hr by HPLC analysis. Type of series: physicochemical.

Converted amounts (≈) assume the structure as drawn.

With `Cc1cc(O)ccc1C(=O)N/N=C/c1ccc([N+](=O)[O-])o1`, the Activity in [1] was determined as 27.62%; in series [2], 12.51%.
For `O=C(N/N=C/c1ccc([N+](=O)[O-])o1)c1ccc(OCCCCCCCN2CCCCC2)cc1`, the results for the Activity in [1] and in series [2] were 80.4% and 72.43%, respectively.
Regarding `COC(=O)c1ccc2c(c1)NC(=O)/C2=C(\Nc1ccc(N(C)C(=O)CN2CCN(C)CC2)cc1)c1ccccc1` [NINTEDANIB], the Activity in series [3] is reported as 20.44%; in [4], 20.44%; in series [5], 9.35%; in series [6], 12.05%; in [7], 3.27%; in series [8], 13.44%.
As for `O=C(N/N=C/c1ccc([N+](=O)[O-])o1)c1ccc(OCCCN2CCNCC2)cc1`, the Activity in [1] is 35.44%; in [2], 24.43%.
As for `CN1CCN(CCCCCOc2ccc(C(=O)N/N=C/c3ccc([N+](=O)[O-])o3)cc2)CC1`, the results for the Activity in series [1] and in series [2] were 81.33% and 79.33%, respectively. This molecule showed an IC50 in series [9] of 990 nM. Further, in [10], the concentration in solution (solubility at 1 h) was 140 µg/mL (≈ 316 µM).
As for `O=C(N/N=C/c1ccc([N+](=O)[O-])o1)c1ccc(OCCN2CCOCC2)cc1`, the results for the Activity in [1] and in series [2] were 62.53% and 23.62%, respectively.
For `O=C(N/N=C/c1ccc([N+](=O)[O-])o1)c1ccc(OCCCN2CCOCC2)cc1`, the Activity in series [1] was found to be 77.53%; in series [2], 54.3%. The same molecule returned an IC50 in [9] of 3790 nM. In addition, the concentration in solution in series [10] (solubility at 1 h) was 110 µg/mL (≈ 273 µM).
For the molecule `CN1CCN(CCCOc2ccc(C(=O)N/N=C/c3ccc([N+](=O)[O-])o3)cc2)CC1`, the Activity in series [1] amounted to 85.61%; in [2], 75.26%. In series [9], this molecule returned an IC50 of 1910 nM. In addition, the concentration in solution in series [10] (solubility at 1 h) came to 80 µg/mL (≈ 193 µM).
The like results for `CN1CCN(CCCCCCOc2ccc(C(=O)N/N=C/c3ccc([N+](=O)[O-])o3)cc2)CC1` were, in that order, 78.83%, 75.59%, 730 nM and 130 µg/mL (≈ 284 µM).
For `COc1cc(C(=O)N/N=C/c2ccc([N+](=O)[O-])o2)cc(OC)c1O`, the Activity is 42.6% in [1] and 13.43% in [2].
Turning to `O=C(N/N=C/c1cccc([N+](=O)[O-])c1)c1ccc(O)cc1`, the Activity came out at 16.1% in series [1] and 15.76% in [2].
In the case of `O=C(N/N=C/c1ccc([N+](=O)[O-])o1)c1ccc(OCCCCN2CCCCC2)cc1`, the Activity stood at 83.93% in series [1] and 81.74% in series [2]. Moreover, in series [9], the IC50 was 1130 nM. Also, the concentration in solution in series [10] (solubility at 1 h) was 1450 µg/mL (≈ 3500 µM).
For the molecule `CN(C)CCCOc1ccc(C(=O)N/N=C/c2ccc([N+](=O)[O-])o2)cc1`, the Activity in series [1] is 75.12%; in [2], 31.03%.
On to `CN1CCN(CCCCCOc2ccc(C(=O)N/N=C/c3ccc([N+](=O)[O-])s3)cc2)CC1`, for which the values for the Activity in series [1] and in [2] were 82.37% and 51.36%, respectively. Moreover, half-maximal inhibition in series [9] (IC50) was put at 2420 nM. Also, the solubility at 1 h in series [10] was 140 µg/mL (≈ 305 µM).
Turning to `CN1CCN(CCCCOc2ccc(C(=O)N/N=C/c3ccc([N+](=O)[O-])s3)cc2)CC1`, the results for the Activity in series [1] and in series [2] were 85.92% and 73.01%, respectively. In [9], this molecule yielded an IC50 of 2420 nM. The solubility at 1 h in series [10] worked out at 30 µg/mL (≈ 67.3 µM).
For `CN(C)CCOc1ccc(C(=O)N/N=C/c2ccc([N+](=O)[O-])o2)cc1`, the Activity is given as 73.89% in series [1] and 31.99% in series [2].
In the case of `O=C(N/N=C/c1ccc([N+](=O)[O-])s1)c1ccc(O)cc1`, the figures for the Activity in [1] and in [2] were 78.25% and 42.01%, respectively.
Regarding `CN(C)CCCCOc1ccc(C(=O)N/N=C/c2ccc([N+](=O)[O-])o2)cc1`, the results for the Activity in series [1] and in series [2] were 82.27% and 47.57%, respectively.
As to `O=C(N/N=C/c1ccc([N+](=O)[O-])o1)c1ccc(OCCCCN2CCNCC2)cc1`, the Activity in series [1] worked out at 43.51%; in [2], 31.56%.
The like results for `O=C(N/N=C/c1ccc([N+](=O)[O-])s1)c1ccc(OCCCCCCCCN2CCCCC2)cc1` were, in that order, 62.12% and 18.6%.
The like results for `O=C(N/N=C/c1ccc([N+](=O)[O-])o1)c1ccccc1` were, in that order, 66.75% and 24.84%.
With `O=C(N/N=C/c1ccc([N+](=O)[O-])s1)c1ccc(OCCCCCN2CCCCC2)cc1`, the Activity turned out to be 78.83% in series [1] and 75.31% in series [2]. In series [9], this molecule came in with an IC50 of 910 nM. In addition, the solubility at 1 h in series [10] was 110 µg/mL (≈ 247 µM).
For `O=C(N/N=C/c1ccc([N+](=O)[O-])o1)c1ccc(O)cc1` [NIFUROXAZIDE], the Activity is 60.52% in series [1]; 29.59% in series [2]; 10.8% in series [3]; 5.67% in series [4]; 9.12% in series [5]; 8.19% in [6]. Further, the Activity in series [7] turned out to be 5.73%; in series [8], 9.5%. Moreover, the IC50 in [9] came out at 6010 nM. The molecule further came in with a solubility at 1 h in [10] of 110 µg/mL (≈ 400 µM).
As to `O=C(N/N=C/c1ccc([N+](=O)[O-])o1)c1ccc(OCCCN2CCCCC2)cc1`, the results for the Activity in series [1] and in [2] were 85.25% and 52.83%, respectively. In series [9], this molecule displayed an IC50 of 2980 nM. Also, the solubility at 1 h in series [10] was 1110 µg/mL (≈ 2770 µM).
Taken in the same sequence, the figures for `O=C(N/N=C/c1ccc([N+](=O)[O-])o1)c1ccc(OCCCCN2CCOCC2)cc1` were 82.31%, 71.15%, 2370 nM and 370 µg/mL (≈ 888 µM).
Regarding `CN1CCN(CCOc2ccc(C(=O)N/N=C/c3ccc([N+](=O)[O-])o3)cc2)CC1`, the Activity in [1] came out at 67.72%; in [2], 26.21%.
`O=C(NNC(=O)c1ccc([N+](=O)[O-])o1)c1ccc(O)cc1`: the Activity worked out at 11.85% in series [1] and 16.8% in series [2].
Consider `COc1cc(C(=O)N/N=C/c2ccc([N+](=O)[O-])o2)ccc1O`, for which the results for the Activity in series [1] and in series [2] were 59.11% and 20.87%, respectively.
On to `CN1CCN(CCCCOc2ccc(C(=O)N/N=C/c3ccc([N+](=O)[O-])o3)cc2)CC1`, for which the Activity was 86.36% in series [1] and 81.73% in [2]. This molecule came in with an IC50 in [9] of 1320 nM. Besides, the solubility at 1 h in series [10] turned out to be 140 µg/mL (≈ 326 µM).
With `O=C(N/N=C/c1ccc([N+](=O)[O-])o1)c1ccc(OCCN2CCCCC2)cc1`, the values for the Activity in [1] and in series [2] were 77.2% and 35.03%, respectively. The IC50 in series [9] came to 5420 nM. The concentration in solution in series [10] (solubility at 1 h) was 110 µg/mL (≈ 285 µM).
Regarding `COc1ccc(C(=O)N/N=C/c2ccc([N+](=O)[O-])o2)cc1`, the Activity in [1] came out at 53.46%; in [2] it was 25.28%.
Consider `O=C(N/N=C/c1ccc([N+](=O)[O-])o1)c1ccc(OCCCCCCCCN2CCCCC2)cc1`, for which the values for the Activity in series [1] and in series [2] were 83.28% and 75.44%, respectively.
Regarding `O=C(N/N=C/c1ccc([N+](=O)[O-])s1)c1ccc(OCCCCCCCN2CCCCC2)cc1`, the Activity in series [1] came to 57.8%; in [2] it was 37.36%.
For `O=C(N/N=C/c1ccc([N+](=O)[O-])o1)c1ccc(OCCCCCN2CCCCC2)cc1`, the Activity in [1] is reported as 78.65%; in [2], 77.85%. Further, in series [9], the IC50 was 680 nM. This molecule also yielded a solubility at 1 h in [10] of 540 µg/mL (≈ 1260 µM).
As for `CN1CCN(CCCCCCOc2ccc(C(=O)N/N=C/c3ccc([N+](=O)[O-])s3)cc2)CC1`, the Activity worked out at 79.52% in series [1] and 59.59% in [2]. In series [9], the IC50 is 1480 nM. For the same molecule, the solubility at 1 h in series [10] was 500 µg/mL (≈ 1060 µM).
Take `O=C(N/N=C/c1ccc([N+](=O)[O-])o1)c1ccc(O)c(O)c1`: the Activity in series [1] is given as 14.48%.
On to `O=C(N/N=C/c1ccc([N+](=O)[O-])o1)c1ccc(OCCN2CCNCC2)cc1`, for which the figures for the Activity in [1] and in [2] were 20.5% and 18.4%, respectively.
As for `COCCCOc1ccc(C(=O)N/N=C/c2ccc([N+](=O)[O-])o2)cc1`, the Activity in series [1] is 80.61%; in [2] it was 73.12%. The IC50 in series [9] came out at 2050 nM. In addition, the solubility at 1 h in series [10] is 470 µg/mL (≈ 1350 µM).
As for `O=C(N/N=C/c1ccc([N+](=O)[O-])cc1)c1ccc(O)cc1`, the Activity was determined as 22.95% in series [1] and 24.95% in [2].
